Measured values: PubChem BioAssay AID2060909 (Molecular Pharmacology Branch, DTP, NCI, 2025)

System: 362531-283-R-J2-PDC complex spheroid viability
Assay: Anticancer human tumor 362531-283-R-J2-PDC patient-derived colon adenocarcinoma cell line growth inhibition [RAS]
Conditions: for viability, T/C: stronger effect = lower value
Outline: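 Agents were tested in combination matrices in half-log decrements from a top concentration at or near clinical Cmax (10 microM if undetermined). Targets were multi-cell spheroids of tumour lines plus HUVEC and MSC stromal cells.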
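Also: spheroids exposed to the agents for 7 days before readout.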
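For viability, T/C in this document: luminescence viability as percent of DMSO vehicle control wells.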

**Q.** What does the source list for `CC(=O)OC12COC1CC(O)C1(C)C(=O)C(O)C3=C(C)C(OC(=O)C(O)C(NC(=O)OC(C)(C)C)c4ccccc4)CC(O)(C(OC(=O)c4ccccc4)C21)C3(C)C` (stereo unspecified) + C#Cc1c(F)ccc2cc(O)cc(-c3ncc4c(N5CC6CCC(C5)N6)nc(OCC56CCCN5CC(F)C6)nc4c3F)c12?
**A.** IC50 (curve of first compound, second compound 0.0316 µM): 169 nM; IC50 (curve of first compound, second compound 0.1 µM): 170 nM; IC50 (curve of first compound, second compound 0.316 µM): 140 nM; IC50 (curve of first compound, second compound 1 µM): 103 nM; IC50 (curve of first compound, second compound 3.16 µM): 54.3 nM; IC50 (curve of first compound, second compound 10 µM): < 31.6 nM; viability, T/C (second compound 0.0316 µM, first compound 0.0316 µM): 83.2%; viability, T/C (second compound 0.0316 µM, first compound 0.1 µM): 76.4%; viability, T/C (second compound 0.0316 µM, first compound 0.316 µM): 18.4%; viability, T/C (second compound 0.0316 µM, first compound 1 µM): 14%; viability, T/C (second compound 0.0316 µM, first compound 3.16 µM): 14.6%; viability, T/C (second compound 0.0316 µM, first compound 10 µM): 18.5%; viability, T/C (second compound 0.1 µM, first compound 0.0316 µM): 81.9%; viability, T/C (second compound 0.1 µM, first compound 0.1 µM): 80.5%; viability, T/C (second compound 0.1 µM, first compound 0.316 µM): 13.6%; viability, T/C (second compound 0.1 µM, first compound 1 µM): 13.6%; viability, T/C (second compound 0.1 µM, first compound 3.16 µM): 13.4%; viability, T/C (second compound 0.1 µM, first compound 10 µM): 15.5%; viability, T/C (second compound 0.316 µM, first compound 0.0316 µM): 90.9%; viability, T/C (second compound 0.316 µM, first compound 0.1 µM): 64.4%; viability, T/C (second compound 0.316 µM, first compound 0.316 µM): 15.1%; viability, T/C (second compound 0.316 µM, first compound 1 µM): 11.7%; viability, T/C (second compound 0.316 µM, first compound 3.16 µM): 12.9%; viability, T/C (second compound 0.316 µM, first compound 10 µM): 11.8%; viability, T/C (second compound 1 µM, first compound 0.0316 µM): 81.2%; viability, T/C (second compound 1 µM, first compound 0.1 µM): 50.8%; viability, T/C (second compound 1 µM, first compound 0.316 µM): 13.6%; viability, T/C (second compound 1 µM, first compound 1 µM): 14.6%; viability, T/C (second compound 1 µM, first compound 3.16 µM): 13.6%; viability, T/C (second compound 1 µM, first compound 10 µM): 13.1%; viability, T/C (second compound 3.16 µM, first compound 0.0316 µM): 65.6%; viability, T/C (second compound 3.16 µM, first compound 0.1 µM): 32.4%; viability, T/C (second compound 3.16 µM, first compound 0.316 µM): 14.2%; viability, T/C (second compound 3.16 µM, first compound 1 µM): 15%; viability, T/C (second compound 3.16 µM, first compound 3.16 µM): 13.5%; viability, T/C (second compound 3.16 µM, first compound 10 µM): 13.5%; viability, T/C (second compound 10 µM, first compound 0.0316 µM): 32.3%; viability, T/C (second compound 10 µM, first compound 0.1 µM): 15.6%; viability, T/C (second compound 10 µM, first compound 0.316 µM): 13.5%; viability, T/C (second compound 10 µM, first compound 1 µM): 15.1%; viability, T/C (second compound 10 µM, first compound 3.16 µM): 13.6%; viability, T/C (second compound 10 µM, first compound 10 µM): 12.5%

**Q.** `CC1(C)CCC(Nc2ncc(C(F)(F)F)c(-c3c[nH]c4c(P(C)(C)=O)c(C#N)ccc34)n2)CN1` (stereo unspecified) was tested. Which viability, T/C (compound 0.000949 µM) did it give?
**A.** Its viability, T/C is 104% [middle of 4 runs].

**Q.** What about the viability, T/C (compound 0.003 µM) of the same molecule?
**A.** The viability, T/C was 98.7% [middle of 4 runs].

**Q.** What about the viability, T/C (compound 0.00949 µM) of the same molecule?
**A.** The viability, T/C was 107% [middle of 4 runs].

**Q.** And the viability, T/C (compound 0.03 µM)?
**A.** Its viability, T/C is 101% [middle of 4 runs].

**Q.** What about the viability, T/C (compound 0.0949 µM) of the same molecule?
**A.** The viability, T/C was 104% [middle of 4 runs].

**Q.** What about the viability, T/C (compound 0.3 µM) of the same molecule?
**A.** Its viability, T/C is 108% [middle of 4 runs].

**Q.** What about the IC50 (curve of compound) of the same molecule?
**A.** The IC50 was > 300 nM.

**Q.** For `CCc1c2c(nc3ccc(O)cc13)-c1cc3c(c(=O)n1C2)COC(=O)[C@]3(O)CC` + CCn1c(-c2cccnc2C(C)OC)c2c3cc(ccc31)N1CCOC(CC(NC(=O)C(C(C)C)N(C)C(=O)C3(F)CCN(C(=O)C#CC(C)(C)N(C)C)CC3)C(=O)N3CCCC(N3)C(=O)OCC(C)(C)C2)C1, which IC50 (curve of first compound, second compound 0.000949 µM) is on record?
**A.** Its IC50 is 58.1 nM.

**Q.** And the IC50 (curve of first compound, second compound 0.003 µM)?
**A.** The IC50 was 32.9 nM.

**Q.** What about the IC50 (curve of first compound, second compound 0.00949 µM) of the same molecule?
**A.** Its IC50 is 51.3 nM.

**Q.** And the IC50 (curve of first compound, second compound 0.03 µM)?
**A.** The IC50 was 60.5 nM.

**Q.** What about the IC50 (curve of first compound, second compound 0.0949 µM) of the same molecule?
**A.** Its IC50 is 56.1 nM.

**Q.** And the IC50 (curve of first compound, second compound 0.3 µM)?
**A.** Its IC50 is 44.2 nM.

**Q.** What about the viability, T/C (second compound 0.000949 µM, first compound 0.000949 µM) of the same molecule?
**A.** The viability, T/C was 96.5%.

**Q.** And the viability, T/C (second compound 0.000949 µM, first compound 0.003 µM)?
**A.** The viability, T/C was 91.6%.

**Q.** And the viability, T/C (second compound 0.000949 µM, first compound 0.00949 µM)?
**A.** Its viability, T/C is 83%.

**Q.** What about the viability, T/C (second compound 0.000949 µM, first compound 0.03 µM) of the same molecule?
**A.** Its viability, T/C is 73.6%.

**Q.** And the viability, T/C (second compound 0.000949 µM, first compound 0.0949 µM)?
**A.** Its viability, T/C is 32.9%.

**Q.** And the viability, T/C (second compound 0.000949 µM, first compound 0.3 µM)?
**A.** Its viability, T/C is 18%.

**Q.** What about the viability, T/C (second compound 0.003 µM, first compound 0.000949 µM) of the same molecule?
**A.** Its viability, T/C is 112%.

**Q.** What about the viability, T/C (second compound 0.003 µM, first compound 0.003 µM) of the same molecule?
**A.** The viability, T/C was 91.6%.

**Q.** What about the viability, T/C (second compound 0.003 µM, first compound 0.00949 µM) of the same molecule?
**A.** Its viability, T/C is 82.5%.

**Q.** And the viability, T/C (second compound 0.003 µM, first compound 0.03 µM)?
**A.** The viability, T/C was 45.9%.

**Q.** What about the viability, T/C (second compound 0.003 µM, first compound 0.0949 µM) of the same molecule?
**A.** The viability, T/C was 34%.

**Q.** And the viability, T/C (second compound 0.003 µM, first compound 0.3 µM)?
**A.** The viability, T/C was 16.7%.

**Q.** And the viability, T/C (second compound 0.00949 µM, first compound 0.000949 µM)?
**A.** Its viability, T/C is 101%.

**Q.** And the viability, T/C (second compound 0.00949 µM, first compound 0.003 µM)?
**A.** Its viability, T/C is 99.2%.

**Q.** And the viability, T/C (second compound 0.00949 µM, first compound 0.00949 µM)?
**A.** Its viability, T/C is 76.1%.

**Q.** And the viability, T/C (second compound 0.00949 µM, first compound 0.03 µM)?
**A.** Its viability, T/C is 65%.

**Q.** And the viability, T/C (second compound 0.00949 µM, first compound 0.0949 µM)?
**A.** Its viability, T/C is 35.5%.

**Q.** What about the viability, T/C (second compound 0.00949 µM, first compound 0.3 µM) of the same molecule?
**A.** Its viability, T/C is 17.8%.

**Q.** What about the viability, T/C (second compound 0.03 µM, first compound 0.000949 µM) of the same molecule?
**A.** Its viability, T/C is 103%.

**Q.** And the viability, T/C (second compound 0.03 µM, first compound 0.003 µM)?
**A.** Its viability, T/C is 90.8%.

**Q.** What about the viability, T/C (second compound 0.03 µM, first compound 0.00949 µM) of the same molecule?
**A.** Its viability, T/C is 89%.

**Q.** What about the viability, T/C (second compound 0.03 µM, first compound 0.03 µM) of the same molecule?
**A.** Its viability, T/C is 71.8%.

**Q.** And the viability, T/C (second compound 0.03 µM, first compound 0.0949 µM)?
**A.** Its viability, T/C is 35.8%.

**Q.** What about the viability, T/C (second compound 0.03 µM, first compound 0.3 µM) of the same molecule?
**A.** The viability, T/C was 15.7%.

**Q.** What about the viability, T/C (second compound 0.0949 µM, first compound 0.000949 µM) of the same molecule?
**A.** The viability, T/C was 95.1%.

**Q.** And the viability, T/C (second compound 0.0949 µM, first compound 0.003 µM)?
**A.** Its viability, T/C is 93.1%.

**Q.** And the viability, T/C (second compound 0.0949 µM, first compound 0.00949 µM)?
**A.** Its viability, T/C is 84.8%.

**Q.** What about the viability, T/C (second compound 0.0949 µM, first compound 0.03 µM) of the same molecule?
**A.** The viability, T/C was 60.1%.

**Q.** And the viability, T/C (second compound 0.0949 µM, first compound 0.0949 µM)?
**A.** The viability, T/C was 40.9%.

**Q.** What about the viability, T/C (second compound 0.0949 µM, first compound 0.3 µM) of the same molecule?
**A.** The viability, T/C was 16.4%.

**Q.** What about the viability, T/C (second compound 0.3 µM, first compound 0.000949 µM) of the same molecule?
**A.** The viability, T/C was 90.3%.

**Q.** What about the viability, T/C (second compound 0.3 µM, first compound 0.003 µM) of the same molecule?
**A.** Its viability, T/C is 108%.

**Q.** And the viability, T/C (second compound 0.3 µM, first compound 0.00949 µM)?
**A.** Its viability, T/C is 90.3%.

**Q.** And the viability, T/C (second compound 0.3 µM, first compound 0.03 µM)?
**A.** The viability, T/C was 57.6%.

**Q.** What about the viability, T/C (second compound 0.3 µM, first compound 0.0949 µM) of the same molecule?
**A.** The viability, T/C was 32.5%.

**Q.** What about the viability, T/C (second compound 0.3 µM, first compound 0.3 µM) of the same molecule?
**A.** The viability, T/C was 13.3%.
